The source of these data is a melting point compilation (Tetko et al.; mined from patent text by program, amines drawn as free bases though some values may be those of a salt).

`O=C(Nc1ccccc1)Oc1ccc(N=C=S)cc1`: the melting point fell in the range of 139 to 142 °C.
`CCN(C=Nc1ccc2c(c1)nc(N(C)C)c1cc(N=CN(CC)CC)ccc12)CC` displayed a melting point of 124 to 126 °C.
In turn, `CCOC=Nc1sc2c(c1C#N)CCN(C)C2` gave a melting point of 88 to 89 °C.
The figure for `CCCCCCCCCCCCCCCCCC(=O)c1ccc(C(=O)O)c(Cl)c1` is 96 to 102 °C.
The figure for `CCCCCCc1cc2c(s1)-n1c(C)nnc1CN=C2c1cc(OC)c(OC)c(OC)c1` is 111 to 113 °C; for `CC(C)(C)OC(=O)[C@@H]1CS[C@H](c2cccnc2)N1C(=O)CNC(=O)Nc1cccc(C(=O)O)c1` it is 147 °C; for `Cc1ccccc1CC(=O)Nc1ccc(C(=O)O)c(Cl)c1` it is 214 to 218 °C.
The figure for `O=c1[nH]c(=Cc2ccc(OCc3ccccc3)cn2)c(=O)[nH]c1=CCc1ccccc1` is 223 to 225 °C; for `CCOC(=O)C1=Cc2c(OC)ccc(OC)c2CC1` it is 74 to 76 °C.
`CCOCc1cc2cc(Cl)ccc2oc1=Nc1ccc(C)cc1`: the melting point was 76 to 77 °C.
In the case of `CCOC(=O)C(NC(C)=O)(C(=O)OCC)C1=Nc2ccc(Br)cc2C(c2ccccn2)=NC1` it was 178 to 180 °C.
In the case of `Nc1cccc2c1OCC2` it was 70 to 72 °C.
In the case of `Cc1c(/C=N/OCCCOc2ccc(CC(=O)O)cc2)c2ccccc2n1C` it was 106 to 108 °C.
On to `CC(NC(C)CN(CC(C)NC(C)=C1C(=O)CC(C)(C)CC1=O)C(=O)/C=C\C(=O)O)=C1C(=O)CC(C)(C)CC1=O` (stereo not drawn), for which the melting point fell in the range of 68 to 70 °C.
In the case of `Nc1ncc(Cc2cccc(-c3ccccc3)c2)c(N)n1` it was 108 to 115 °C.
The figure for `O=C(Nc1ccccc1Cl)C1CN(C(=O)Nc2ccc(C(F)(F)F)cc2)N=C1c1ccc(Cl)cc1` (stereo not drawn) is greater than 200 °C; for `CC(C)(C)c1cc(C(=O)c2cccs2)cc2c1OCC2(C)C` it is 103 to 105 °C.
The figure for `CCc1cn(C2CC(O)C(CNCc3ccccc3)O2)c(=O)[nH]c1=O` (stereo not drawn) is 121 to 124 °C; for `CC(C)(C)c1cc(CCc2ccccc2NC(=O)NC2CCCc3ccccc32)cc(C(C)(C)C)c1O` (stereo not drawn) it is 168 to 169 °C; for `Nc1cnc(-c2ccc(F)cc2)n(CC(=O)N[C@@H](Cc2ccccc2)C(=O)C(F)(F)C(=O)NCc2ccccc2)c1=O` it is 90 to 91 °C.
Take `O=C(c1ccccc1)c1c(F)ccc([N+](=O)[O-])c1F`: the melting point lay in the range of 75.8 to 77.2 °C.
The figure for `CCOC(=O)c1ccc2c(c1)CC(Cc1cncs1)C2` (stereo not drawn) is 47 to 49 °C.
For the compound `CCOC(=O)C(O)(CC(=O)c1ccc(C)c(F)c1)C(=O)OCC`, the melting point fell in the range of 68.7 to 69 °C.
In the case of `CC1(C)CCC(C)(C)c2cc(-c3c[nH]c(C=O)c3)ccc21` it was 211 to 212 °C; in that of `O=CC(=O)c1ccc(Oc2cccc(C(F)(F)F)c2)cc1`, 73 to 80 °C; in that of `COc1ccc2c(c1)Oc1ccccc1C2`, 72 to 74 °C.
The figure for `CC(CC(=O)O)n1nnnc1S` (stereo not drawn) is 169 to 172 °C.
The figure for `O=c1[nH]c2cc(Cl)ccc2c(O)c1-c1ccc(Cl)cc1` is greater than 300 °C.
Compound `O=C(O)c1cn(C2COC2)c2cc(F)c(F)c(O)c2c1=O` showed a melting point of 273 to 276 °C.
Turning to `CC(C)=CCON1C(=O)c2ccccc2C1=O`, the melting point was in the range of 97 to 98 °C.
In the case of `COC(=O)NC(=O)C(Cc1ccc(OCCc2nc(-c3ccccc3)oc2C)cc1)C(=O)OC` (stereo not drawn) it was 120 °C; in that of `O=C(CCl)NC1CCCc2sccc21` (stereo not drawn), 115 to 119 °C.
With `NCC1=CC(c2ccccc2)Cc2c(O)cccc21` (stereo not drawn), the melting point fell in the range of 102 to 104 °C.
In the case of `FC1(F)N=c2cc3c(cc2=N1)OC(Cl)O3` it was greater than 220 °C.
As for `CCCCCCCCCCCCCC(=O)Nc1ccc(Cl)c(NC(=CC(=O)OCC)OCC)c1`, the melting point lay in the range of 115 to 118 °C.
In the case of `O=C(C=Cc1cccc(S(=O)(=O)NCc2cccnc2)c1)NO` it was 191 °C; in that of `O=C1C(=O)c2ccccc2C2=C1SCC1(CCN(C(=O)c3cccc(Cl)c3)CC1)O2`, 155 to 158 °C; in that of `Nc1ccc(SC(F)(F)F)cc1[N+](=O)[O-]`, 86 °C.
In the case of `Cc1cc(N)n(-c2ccc(Cl)c(Cl)c2)n1` it was 110 to 112 °C; in that of `Nc1nc(OS(=O)(=O)Cl)nn1C(=O)Oc1ccccc1`, 164 °C.
The figure for `OC(CN1CCNC1=S)c1cccc(F)c1` (stereo not drawn) is 116 °C.
Compound `O=[N+]([O-])c1cnn2c1-c1ccccc1NC2C=Cc1ccccc1` (stereo not drawn) gave a melting point of 171 to 173 °C.
Compound `COP(=O)(Cc1cc(C)c(CP(=O)(OC)OC)cc1C)OC` gave a melting point of 121 to 123 °C.
In the case of `CCc1ccc2c(c1)C=Cc1cc(C)ccc1C2c1cn(-c2ccnc(N3CCCC3C(=O)O)n2)c(=O)[nH]c1=S` (stereo not drawn) it was 175 °C; in that of `c1ccc(Sc2sc(-c3ccccc3)cc2-c2ccccc2)cc1`, 96 to 97 °C; in that of `CCCc1cn(C)cc(-c2ccc(Cl)c(C(F)(F)F)c2)c1=O`, 141 to 142 °C.
The figure for `NC(=O)c1cc(O)cc2nc(-c3ccc(O)cc3)oc12` is 325 °C; for `CS(=O)(=O)C(=C1CN(C(c2ccccc2)c2ccccc2)C1)c1ccc(Cl)c(Cl)c1` it is 170 °C.
Take `COc1ccc(C)cc1NC(=O)Nc1ccc(N2CCN(C(=O)Nc3ccc(OCCO)cc3C)CC2)nc1`: the melting point lay within 189 to 190 °C.
Take `O=C1NCC(Cc2ccccc2-c2ccccc2)O1` (stereo not drawn): the melting point was in the range of 146 to 148 °C.
`CCCCCCOc1ccc(-c2cc(CO)ccc2CO)cc1` showed a melting point of 72.5 to 74 °C.
In the case of `O=C1c2c(O)cccc2C(O)(c2cccc(C(F)(F)F)c2)c2cccc(O)c21` it was 222 to 223 °C; in that of `Cc1cc2c(C)nc(N)nc2o1`, 263 to 265 °C.
In the case of `NC(=S)NC[C@H]1CN(c2ccc(-n3cncn3)cc2)C(=O)O1` it was 214 to 215 °C.
In turn, `CCCCNC(=O)NCc1ccc(Nc2n[nH]c3ncnc(Nc4cccc(Cl)c4)c23)cc1` came in with a melting point of 217 to 218 °C.
In the case of `CCCN(CCC)CCOc1ccc(Cn2c(-c3ccc(O)cc3)c(C)c3cc(O)ccc32)cc1` it was 83 to 86 °C.
In the case of `CN1CCN(c2ccc(NC(=O)n3ccc4cc(Oc5cc(CC(N)=O)ncn5)ccc43)cc2C(F)(F)F)CC1` it was 238 to 240 °C; in that of `O=[N+]([O-])c1cnn(-c2c(Cl)cc(C(F)(F)F)cc2Cl)c1Br`, 96 °C.
In the case of `CC(C)(C)OC(=O)COC[C@@H]1C[C@@H](SC(c2ccccc2)(c2ccccc2)c2ccccc2)CN1S(C)(=O)=O` it was 98 °C.
The compound `CC(Oc1nn(-c2ccccc2)cc1-c1ccccc1)C(=O)O` (stereo not drawn) came in with a melting point of 175 to 178 °C.
Compound `O=C1c2ccccc2-c2c1c1ccccc1c(=O)n2CCCCCCCCCCNS(=O)(=O)c1ccccc1` registered a melting point of 128 to 130 °C.
Compound `COC1C(OC(=O)c2ccccc2)C=C(C)C(=O)CC1(C)C` (stereo not drawn) displayed a melting point of 97 to 98 °C.
In the case of `CNC(=O)CC1CN=C(c2cc3cc(Oc4ccc(S(C)(=O)=O)nc4)cc(OC(COC)COC)c3[nH]2)S1` (stereo not drawn) it was 149 to 151 °C.

What is called melting point is the temperature of the solid-liquid transition.
